# Source: paper PMC7269146, “Jingzhaotoxin-X, a gating modifier of Kv4.2 and Kv4.3 potassium channels purified from the venom of the Chinese tarantula Chilobrachys jingzhao” (The Journal of Venomous Animals and Toxins Including …, 2020)
# Where a SMILES comes first, the peptide text is derived from it. Bridges are numbered along the chain shown (N, C = ends).
# Biological target: T1, Kv4.2 (Rattus norvegicus, UniProt Q63881)
# T1 construct: expressed in transfected cells; host or cells: HEK293t
# T1 sequence (Q63881 1-630): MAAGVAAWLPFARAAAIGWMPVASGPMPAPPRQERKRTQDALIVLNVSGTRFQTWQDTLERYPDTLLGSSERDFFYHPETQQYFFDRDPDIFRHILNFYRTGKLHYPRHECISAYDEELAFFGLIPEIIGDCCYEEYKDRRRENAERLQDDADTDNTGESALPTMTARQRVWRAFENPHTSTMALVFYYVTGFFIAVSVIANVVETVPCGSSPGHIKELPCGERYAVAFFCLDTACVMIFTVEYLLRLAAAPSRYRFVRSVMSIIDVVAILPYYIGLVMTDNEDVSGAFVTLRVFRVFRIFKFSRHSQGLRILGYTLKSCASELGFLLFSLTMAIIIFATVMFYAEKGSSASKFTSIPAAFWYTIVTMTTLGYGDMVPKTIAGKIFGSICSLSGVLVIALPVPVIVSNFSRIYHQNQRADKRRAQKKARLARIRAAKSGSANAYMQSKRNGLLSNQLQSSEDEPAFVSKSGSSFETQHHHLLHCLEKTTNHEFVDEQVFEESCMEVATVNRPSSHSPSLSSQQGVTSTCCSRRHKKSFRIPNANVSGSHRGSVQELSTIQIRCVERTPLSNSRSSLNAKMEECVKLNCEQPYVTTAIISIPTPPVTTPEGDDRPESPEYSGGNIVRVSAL
# Assay: paired-pulse protocol, recovery from inactivation of Kv4.2
# Assay type: cell-based
# Conditions: n = 7
# Source text: Rat cDNA genes encoding Kv4.2 (Accession: NM_031730.2) and Kv4.3 (Accession: AB003587.1) were subcloned to vector pcDNA3.1. In addition, human cDNA genes encoding Nav1.7 (Accession: DQ857292.1) and Nav1.5 (Accession: AB158469.2) were subcloned to vectors pcDNA3.1-mod and pcDNA3.1, separately. Then, Kv4.2, Kv4.3, Nav1.5 and Nav1.7 constructs were transiently transfected into the human embryonic kidney 293t (HEK293t) cells using lipofectamine 2000 (Invitrogen, USA) in accordance with manufacturer protocols. Thereafter, HEK293 cells were inoculated within Dulbecco’s modified Eagle’s medium (DMEM) containing 10% fetal bovine serum (FBS) at 5% CO2 and 37°C. The Kv4.3 channel and the Kv4.2 counterpart were then transfected in the absence of β subunit. Subsequently, cells were incubated with a DNA-lipofectamine mixture (one reporter plasmid for green fluorescence protein and channel constructs) for 4-6 h, and were washed with the fresh medium. […]
# Figure 7. […] Thereafter, those elicited peak currents in test pulses were determined and standardized based on the peak currents for conditioning pulses within the identical cell. […] ( B ) The standardized recovery data were expressed as mean ± S.E. (n = 7), plotted as a function of inter-pulse interval, and fitted to one singular exponential function.
smiles,measurement,setting,value
"CC(C)C[C@@H]1NC(=O)[C@H](CCCCN)NC(=O)[C@H](Cc2ccc(O)cc2)NC(=O)[C@@H]2CSSC[C@@H]3NC(=O)[C@H](Cc4ccc(O)cc4)NC(=O)[C@H](Cc4ccccc4)NC(=O)CNC(=O)[C@H](C)NC(=O)[C@H](CSSC[C@H](NC(=O)[C@@H](N)CC(C)C)C(=O)N[C@@H](CO)C(=O)N[C@@H](CCCNC(=N)N)C(=O)N[C@@H](CCC(=O)O)C(=O)NCC(=O)N[C@@H](CCC(=O)O)C(=O)N[C@@H](Cc4ccccc4)C(=O)N2)NC(=O)[C@H](CSSC[C@@H](C(=O)N[C@@H](Cc2ccc(O)cc2)C(=O)N[C@@H](CCCNC(=N)N)C(=O)N[C@@H](CC(N)=O)C(=O)O)NC(=O)[C@H](Cc2c[nH]cn2)NC(=O)[C@H](CC(C)C)NC(=O)[C@H](C(C)C)NC(=O)[C@H](Cc2ccccc2)NC(=O)[C@H](C)NC(=O)[C@H](CCCCN)NC3=O)NC(=O)[C@H](CCCCN)NC(=O)[C@H](CCCNC(=N)N)NC1=O [JZTX-X, Jingzhaotoxin-X] (H-LCSREGEFCYKLRKCCAGFYCKAFVLHCYRN-OH; disulfide 2-16, 9-21, 15-28; N-terminus assumed)",effect on recovery of Kv4.2,paired-pulse protocol,remarkably accelerated the recovery of Kv4.2 channel inhibition
same,"time constant of recovery from inactivation, Kv4.2","toxin concentration not given, control 195.3 ± 31.6 ms, P<0.05, single exponential",130.2 ± 25.3 ms
